For experiment [1], the target named is T1, Cholesteryl ester transfer protein (Homo sapiens, UniProt P11597).
T1 sequence (P11597 whole entry): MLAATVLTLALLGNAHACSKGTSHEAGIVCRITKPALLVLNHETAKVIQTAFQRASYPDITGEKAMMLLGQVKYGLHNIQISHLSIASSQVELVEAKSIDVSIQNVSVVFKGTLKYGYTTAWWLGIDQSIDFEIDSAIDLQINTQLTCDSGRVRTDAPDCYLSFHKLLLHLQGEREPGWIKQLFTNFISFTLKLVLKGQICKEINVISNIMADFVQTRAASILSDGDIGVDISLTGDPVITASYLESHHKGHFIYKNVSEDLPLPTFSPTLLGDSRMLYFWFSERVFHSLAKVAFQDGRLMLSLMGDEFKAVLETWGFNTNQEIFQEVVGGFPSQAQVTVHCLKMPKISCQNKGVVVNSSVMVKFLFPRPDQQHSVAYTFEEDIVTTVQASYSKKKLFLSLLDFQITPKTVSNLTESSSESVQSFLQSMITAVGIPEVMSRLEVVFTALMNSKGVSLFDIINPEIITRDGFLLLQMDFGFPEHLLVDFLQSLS
The experiment can be described thus: Inhibition of CETP-mediated neutral lipid transfer by fluorometric analysis.

Experiment [2] concerns Mus musculus. Description: Cardioprotective activity in transgenic B6 mouse expressing cynomolgus monkey CETP assessed as increase in HDL-cholesterol level at 100 mg/kg, po BID measured after 24 hrs of first dose. It is filed as functional.
Experiment [3] has as its system Mus musculus. The experiment can be described thus: Cardioprotective activity in po dosed transgenic B6 mouse expressing cynomolgus monkey CETP assessed as increase in HDL-cholesterol level administered BID measured after 24 hrs of first dose. It is filed as functional, organism-based.
Experiment [4] concerns Mus musculus. The experiment can be described thus: Cardioprotective activity in transgenic B6 mouse expressing cynomolgus monkey CETP assessed as increase in HDL-cholesterol level at 10 mg/kg, po BID measured after 24 hrs of first dose. It is filed as functional.
Experiment [5] has as its system Mus musculus. The experiment can be described thus: Cardioprotective activity in transgenic B6 mouse expressing cynomolgus monkey CETP assessed as increase in HDL-cholesterol level at 1 mg/kg, po BID measured after 24 hrs of first dose. It is filed as functional.
For experiment [6], the system named is Mus musculus. Description: Cardioprotective activity in transgenic B6 mouse expressing cynomolgus monkey CETP assessed as increase in HDL-cholesterol level at 30 mg/kg, po BID measured after 24 hrs of first dose. It is filed as functional.
In experiment [7] the test system is Mus musculus. The experiment can be described thus: Cardioprotective activity in transgenic B6 mouse expressing cynomolgus monkey CETP assessed as increase in HDL-cholesterol level at 3 mg/kg, po BID measured after 24 hrs of first dose. It is filed as functional.

Molecules are shown by their SMILES.

By IC50 is commonly meant the concentration that inhibits the measured activity by half.

`COC(=O)N(Cc1cc(C(F)(F)F)cc(C(F)(F)F)c1)Cc1cc(C(C)(C)C)ccc1-c1cc(C(C)C)ccc1OC`: the IC50 in experiment [1] came out at 9510 nM. The molecule `CCOc1ccc(C)cc1-c1ccc(C(F)(F)F)cc1CN(Cc1cc(C(F)(F)F)cc(C(F)(F)F)c1)C(=O)OC` registered an IC50 in experiment [1] of 4490 nM. In the case of `COC(=O)N(Cc1cc(C(F)(F)F)cc(C(F)(F)F)c1)Cc1cc(C(F)(F)F)ccc1-c1cc(C)ccc1OC`, the Activity with Mus musculus [2] came out at 40%. The same molecule displayed a half-inhibitory concentration (IC50) in experiment [1] of 469 nM.

Take `COC(=O)N(Cc1cc(C(F)(F)F)cc(C(F)(F)F)c1)Cc1cc(C(F)(F)F)ccc1-c1cc(C(C)C)ccc1OC`: the Activity result with Mus musculus [3] is “Dose-dependent effect”; in the experiment on Mus musculus [4], 54%; with Mus musculus [5] it was 37%; in the experiment on Mus musculus [6] it was 86%; with Mus musculus [7], 43%. In experiment [1], this molecule had an IC50 of 108 nM.

For the molecule `CCCc1ccc(OC)c(-c2ccc(C(F)(F)F)cc2CN(Cc2cc(C(F)(F)F)cc(C(F)(F)F)c2)C(=O)OC)c1`, the IC50 in experiment [1] turned out to be 753 nM. Still for that read-out and setting: with `COC(=O)N(Cc1cc(C(F)(F)F)cc(C(F)(F)F)c1)Cc1cc(C(F)(F)F)ccc1-c1ccccc1OC` the figure was 1600 nM; with `COC(=O)N(Cc1cc(C(F)(F)F)cc(C(F)(F)F)c1)Cc1cc(OC)ccc1-c1cc(C(C)C)ccc1OC`, 694 nM. Still for that read-out and setting: with `COC(=O)N(Cc1cc(C(F)(F)F)cc(C(F)(F)F)c1)Cc1cc([N+](=O)[O-])ccc1-c1cc(C(C)C)ccc1OC` the figure was 134 nM; with `COC(=O)N(Cc1cc(C(F)(F)F)cc(C(F)(F)F)c1)Cc1ccccc1-c1cc(C(C)C)ccc1OC`, 3830 nM. On the same count and under the same terms, in the case of `COC(=O)N(Cc1cc(C(F)(F)F)cc(C(F)(F)F)c1)Cc1cc(F)ccc1-c1cc(C(C)C)ccc1OC` it was 1730 nM; in that of `COC(=O)N(Cc1cc(C(F)(F)F)cc(C(F)(F)F)c1)Cc1cc(C(F)(F)F)ccc1-c1cc(OC)ccc1OC`, 444 nM; in that of `COC(=O)N(Cc1cc(C(F)(F)F)cc(C(F)(F)F)c1)Cc1cc(Cl)ccc1-c1cc(C(C)C)ccc1OC`, 1430 nM. In turn, `COC(=O)N(Cc1cc(C(F)(F)F)cc(C(F)(F)F)c1)Cc1cc(N)ccc1-c1cc(C(C)C)ccc1OC` showed an IC50 in experiment [1] of 4660 nM. Still for that read-out and setting: with `COC(=O)N(Cc1cc(C(F)(F)F)cc(C(F)(F)F)c1)Cc1cc(C(F)(F)F)ccc1-c1cc(C(C)(C)C)ccc1OC` the figure was 2590 nM. On to `COC(=O)N(Cc1cc(C(F)(F)F)cc(C(F)(F)F)c1)Cc1cc(C#N)ccc1-c1cc(C(C)C)ccc1OC`, for which half-maximal inhibition in experiment [1] (IC50) was put at 224 nM. On the same count and under the same terms, in the case of `CCc1ccc(OC)c(-c2ccc(C(F)(F)F)cc2CN(Cc2cc(C(F)(F)F)cc(C(F)(F)F)c2)C(=O)OC)c1` it was 210 nM; in that of `COC(=O)N(Cc1cc(C(F)(F)F)cc(C(F)(F)F)c1)Cc1cc(I)ccc1-c1cc(C(C)C)ccc1OC`, 365 nM; in that of `COC(=O)N(Cc1cc(C(F)(F)F)cc(C(F)(F)F)c1)Cc1cc(C(F)(F)F)ccc1-c1cc(C(C)C)c(F)cc1OC`, 117 nM.

The values above are taken from ChEMBL document CHEMBL1287736, “Design of a novel class of biphenyl CETP inhibitors” (Bioorg Med Chem Lett, 2010).
